Measured values from patent publication US11667602B2, “Compounds and their use” (AstraZeneca AB, priority 2020, dated 2023).
Values after ≈ are worked out from the molar mass of the structure shown.

Experiments:
[1] = Rat Hepatocyte Stability (Test E); assay type: in vitro ADME; settings: rat, hepatocytes, geometric mean if run multiple times
Protocol: Rat Hepatocyte Stability (Test E)
The assay was conducted according to the Rat Hepatocyte Stability Assay described in pages 170-174 of Wernevik, J. et al., “A Fully Integrated Assay Panel for Early Drug Metabolism and Pharmacokinetics Profiling”, Assay and Drug Development Technologies, 2020, 18(4), 157-179. Data are reported in Table 36 as mean Clint(μl/min/10^6 cells). Where the assay was run multiple times for the same compound, the geometric mean is reported.

Solubility (Test F) = assay type: physicochemical; settings: arithmetic mean if run multiple times
Protocol: The assay was conducted according to the Solubility Assay described in pages 164-167 of Wernevik, J. et al., “A Fully Integrated Assay Panel for Early Drug Metabolism and Pharmacokinetics Profiling”, Assay and Drug Development Technologies, 2020, 18(4), 157-179. Data are reported in Table 36 as solubility ([…]. Where the assay was run multiple times for the same compound, the arithmetic mean is reported.

human RXFP1 = target: T1, human RXFP1 (Homo sapiens, UniProt Q9HBX9); assay: RXFP1 Hu cAMP (Test A); assay type: cell-based; parameters: expressed in transfected cells; host or cells: Jump-In T-REx CHO-K1 cells (ThermoFisher), induced with 10 ng/ml doxycycline for 24 h; settings: RXFP1 Hu cAMP; for EC50: read-out: Test A EC50
T1 sequence (Q9HBX9 1-757): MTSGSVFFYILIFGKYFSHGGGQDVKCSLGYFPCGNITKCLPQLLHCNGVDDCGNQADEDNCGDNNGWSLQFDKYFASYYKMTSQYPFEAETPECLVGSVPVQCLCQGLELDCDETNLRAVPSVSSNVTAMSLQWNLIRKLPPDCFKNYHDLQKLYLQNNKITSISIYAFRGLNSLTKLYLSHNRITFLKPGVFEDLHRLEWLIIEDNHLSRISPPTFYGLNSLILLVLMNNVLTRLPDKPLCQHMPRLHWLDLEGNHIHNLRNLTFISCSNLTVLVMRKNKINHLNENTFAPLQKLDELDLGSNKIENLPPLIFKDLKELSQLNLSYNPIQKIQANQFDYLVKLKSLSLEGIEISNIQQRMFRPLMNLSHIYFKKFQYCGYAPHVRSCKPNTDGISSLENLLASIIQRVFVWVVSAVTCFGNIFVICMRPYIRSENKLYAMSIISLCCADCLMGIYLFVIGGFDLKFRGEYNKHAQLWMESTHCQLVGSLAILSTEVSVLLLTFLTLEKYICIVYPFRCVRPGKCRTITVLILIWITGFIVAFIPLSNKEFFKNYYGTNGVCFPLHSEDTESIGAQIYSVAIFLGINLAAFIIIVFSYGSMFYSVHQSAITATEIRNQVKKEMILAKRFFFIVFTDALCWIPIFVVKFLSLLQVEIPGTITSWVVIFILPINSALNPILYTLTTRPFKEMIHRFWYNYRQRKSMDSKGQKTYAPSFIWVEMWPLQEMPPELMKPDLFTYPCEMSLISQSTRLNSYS
Method in brief: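 CHO-K1 (Jump-In T-REx), RXFP1 induced w/ 10 ng/ml doxycycline 24 h, cryopreserved. 0.5 mM IBMX final. cAMP by HTRF, 2 h RT, std curve.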

[2] = Human Liver Microsomal Stability (Test C); assay type: in vitro ADME; settings: human, liver microsomes
Protocol: Human Liver Microsomal Stability (Test C)
The assay was conducted according to the Human Liver Microsome Stability Assay described in pages 170-174 of Wernevik, J. et al., “A Fully Integrated Assay Panel for Early Drug Metabolism and Pharmacokinetics Profiling”, Assay and Drug Development Technologies, 2020, 18(4), 157-179. Data are reported in Table 36 as CLint (μl/min/mg protein). Where the assay was run multiple times for the same compound, the arithmetic mean is reported.

[3] = Human Plasma Protein Binding (Test B); assay type: in vitro ADME; settings: fraction unbound (fu)
Protocol: Human Plasma Protein Binding (Test B)
The assay was conducted according to the Human Plasma Protein Binding Assay described in pages 167-170 of Wernevik, J. et al., “A Fully Integrated Assay Panel for Early Drug Metabolism and Pharmacokinetics Profiling”, Assay and Drug Development Technologies, 2020, 18(4), 157-179. Data are reported in Table 36 as fraction unbound (fu) (% free). Where the assay was run multiple times for the same compound, the arithmetic mean is reported.

| Structure (SMILES) | hepatocyte CLint [1] [µL/min/1e6 cells] | solubility (Solubility (Test F)) [µM] | EC50 (human RXFP1) [nM] | microsomal CLint [2] [µL/min/mg] | Test B Human Plasma Protein Binding (% free) [3] [% free] | Test A Sinf (human RXFP1) [%] |
| --- | --- | --- | --- | --- | --- | --- |
| COc1cc(F)c(O[C@H]2CC[C@@H](C(=O)O)CC2)cc1C(=O)N[C@@H]1[C@H]2CC[C@H](C2)[C@@H]1C(=O)Nc1cccc(C(C)(C)C)c1 [Example 189] | 23 | 83 (≈ 48.2 µg/mL) | 130 | 34 | 1.5 | 101 |
| COc1cc(F)c(O[C@H]2CC[C@@H](C(=O)O)CC2)cc1C(=O)N[C@@H]1[C@H]2CC[C@H](C2)[C@@H]1C(=O)NC12CC(C1)C2 [Example 178] | 39 | > 1000 | > 2700 | 8.6 | 17 | 95 |
| COc1cc(F)c(O[C@H]2CC[C@@H](C(=O)O)CC2)cc1C(=O)N[C@@H]1[C@H]2CC[C@H](C2)[C@@H]1C(=O)Nc1cccc(CF)c1 [Example 11, (1S,4s)-4-(2-Fluoro-5-(((1S,2R,3S,4R)-3-((3-(fluoromethyl)phenyl)carbamoyl)bicyclo[2.2.1]heptan-2-yl)carbamoyl)-4-methoxyphenoxy)cyclohexane-1-carboxylic acid] | > 300 | > 1000 |  | 36 | 3.3 | 104 |
| COc1cc(F)c(O[C@H]2CC[C@@H](C(=O)O)CC2)cc1C(=O)N[C@@H]1[C@H]2CC[C@H](C2)[C@@H]1C(=O)NC1CCC1 [Example 177] | 130 | > 1000 | > 2200 | 3.5 | 15 | 100 |
| COc1cc(C#N)c(O[C@H]2CC[C@@](C)(C(=O)O)CC2)cc1C(=O)N[C@@H]1[C@H]2CC[C@H](C2)[C@@H]1C(=O)N[C@H]1C[C@@H](C)C1 [Example 73] | 18 | 850 (≈ 457 µg/mL) | 220 | 11 | 12 | 114 |
| COc1cc(F)c(O[C@H]2CC[C@@H](C(=O)O)CC2)cc1C(=O)N[C@@H]1[C@H]2CC[C@H](C2)[C@@H]1C(=O)NC(C)C [Example 8, (1S,4s)-4-(2-Fluoro-5-(((1S,2R,3S,4R)-3-(isopropylcarbamoyl)bicyclo[2.2.1]heptan-2-yl)carbamoyl)-4-methoxyphenoxy)cyclohexane-1-carboxylic acid] | 38 | 980 (≈ 481 µg/mL) | > 50000 | 1.7 | 23 |  |
| COc1cc(C#N)c(O[C@H]2CC[C@@](C)(C(=O)O)CC2)cc1C(=O)N[C@@H]1[C@H]2CC[C@H](C2)[C@@H]1C(=O)NCC1CC(C)(C)C1 [Example 87] | 24 | 690 (≈ 390 µg/mL) | 110 | 20 | 6.7 | 109 |

The next lines start with the values.

| hepatocyte CLint [1] [µL/min/1e6 cells] | solubility (Solubility (Test F)) [µM] | EC50 (human RXFP1) [nM] | microsomal CLint [2] [µL/min/mg] | Test B Human Plasma Protein Binding (% free) [3] [% free] | Test A Sinf (human RXFP1) [%] | Structure (SMILES) |
| --- | --- | --- | --- | --- | --- | --- |
| 70 | > 1000 | > 40000 | 7.4 | 8.6 |  | COc1cc(F)c(O[C@H]2CC[C@@H](C(=O)O)CC2)cc1C(=O)N[C@@H]1[C@H]2CC[C@H](C2)[C@@H]1C(=O)Nc1c(F)cccc1F [Example 184, (1S,4s)-4-(5-(((1S,2R,3S,4R)-3-((2,6-Difluorophenyl)carbamoyl)bicyclo[2.2.1]heptan-2-yl)carbamoyl)-2-fluoro-4-methoxyphenoxy)cyclohexane-1-carboxylic acid] |
| 37 | 820 (≈ 464 µg/mL) |  | 44 | 6.9 | 120 | COc1cc(C#N)c(O[C@H]2CC[C@@](C)(C(=O)O)CC2)cc1C(=O)N[C@@H]1[C@H]2CC[C@H](C2)[C@@H]1C(=O)NCC1(C(C)C)CC1 [Example 78] |
| 23 | 890 (≈ 505 µg/mL) | 410 | 8 | 16 | 105 | COc1cc(C#N)c(O[C@H]2CC[C@@](C)(C(=O)O)CC2)cc1C(=O)N[C@@H]1[C@H]2CC[C@H](C2)[C@@H]1C(=O)NCC1(OC)CCC1 [Example 80] |
| 49 | 330 (≈ 203 µg/mL) | 330 | 9.3 | 2.2 | 93 | COc1cc(F)c(O[C@H]2CC[C@@H](C(=O)O)CC2)cc1C(=O)N[C@@H]1[C@H]2CC[C@H](C2)[C@@H]1C(=O)Nc1c(F)c(F)c(F)c(F)c1F [Example 16, (1S,4s)-4-(2-Fluoro-4-methoxy-5-(((1S,2R,3S,4R)-3-((perfluorophenyl)carbamoyl)bicyclo[2.2.1]heptan-2-yl)carbamoyl)phenoxy)cyclohexane-1-carboxylic acid] |
| 36 | 300 (≈ 196 µg/mL) | 120 | 74 | 0.76 | 97 | COc1cc(C)c(O[C@H]2CC[C@@H](C(=O)O)CC2)cc1C(=O)N[C@@H]1[C@H]2CC[C@H](C2)[C@@H]1C(=O)Nc1cccc(S(=O)(=O)C(F)(F)F)c1 [Example 465, (1S,4s)-4-(4-Methoxy-2-methyl-5-(((1S,2R,3S,4R)-3-((3-((trifluoromethyl)sulfonyl)phenyl)carbamoyl)bicyclo[2.2.1]heptan-2-yl)carbamoyl)phenoxy)cyclohexane-1-carboxylic acid] |
| 21 | 820 (≈ 451 µg/mL) | 720 | 35 | 4.2 | 89 | COc1cc(C#N)c(O[C@H]2C[C@@]3(C2)C[C@H](C(=O)O)C3)cc1C(=O)N[C@@H]1[C@H]2CC[C@H](C2)[C@@H]1C(=O)NCC1(C)CCC1 (single isomer, unassigned) [Example 6, (2R*,4r,6R)-6-(2-Cyano-4-methoxy-5-(((1S,2R,3S,4R)-3-(((1-methylcyclobutyl)methyl)carbamoyl)bicyclo[2.2.1]heptan-2-yl)carbamoyl)phenoxy)spiro[3.3]heptane-2-carboxylic acid] |
| 17 | 830 (≈ 456 µg/mL) | 470 | 6.8 | 16 | 95 | COc1cc(C#N)c(O[C@H]2CC[C@@](C)(C(=O)O)CC2)cc1C(=O)N[C@@H]1[C@H]2CC[C@H](C2)[C@@H]1C(=O)NC1(C2CC2)CC1 [Example 112] |
| 49 | 400 (≈ 251 µg/mL) |  | 27 | 1.2 | 105 | COc1cc(F)c(O[C@H]2CC[C@@H](C(=O)O)CC2)cc1C(=O)N[C@@H]1[C@H]2CC[C@H](C2)[C@@H]1C(=O)Nc1cccc(OC(F)(F)F)c1F [Example 18] |
| 120 | 420 (≈ 237 µg/mL) | 680 | 23 | 1.6 | 110 | COc1cc(F)c(O[C@H]2CC[C@@H](C(=O)O)CC2)cc1C(=O)N[C@@H]1[C@H]2CC[C@H](C2)[C@@H]1C(=O)Nc1cccc(C2CC2)c1 [Example 190] |
